SMILES strings stand for the structures. Peptide text beside a SMILES is read from it. * marks the point of attachment. Acetyl(5-fluorouracil-1-yl) = O=C(Cn1cc(F)c(=O)[nH]c1=O)*; Methacryloyl = C=C(C)C(=O)*

For data set [1], the system named is NIH/3T3 fibroblasts. Kind of data set: CCK-8 cell viability / cytotoxicity assay. The conditions noted are these: for inhibitory effect on fibroblasts compared among 5-FuA, 5-FuA-Pep-MA and 5-FuA-Pro-Pro: all the concentrations (80, 125, 250 μM), 48 h, CCK-8, one-way ANOVA, n = 4. The format is cell-based.
Description: In vitro cell viability and cytotoxicity. The CCK-8 assays were used to detect the cytotoxicity of
5-Fu and 5-Fu derivatives towards NIH/3T3 fibroblasts. Briefly, NIH/3T3 fibroblasts were cultured
with DMEM medium (containing 10% FBS and 1% penicillin-streptomycin) at 37 °C with 5% CO2.
Then, NIH/3T3 fibroblasts were seeded in 96-well plates at a density of 5 × 10^3 cells/well and
cultured for 12 h to adhere to the bottom of the plates. Subsequently, the medium was replaced with
concentrations of 80, 125, 250 μM, respectively. The cells treated with the neat medium were taken
as the control group. After 48 h of incubation, the CCK-8 kit was added, and the absorption of each
well at 450 nm was measured with a microplate reader (Multiskan MK3, ThermoFisher Scientific,
USA) to calculate the cell viability.
Data set [2] concerns rabbit ear HS model. Briefly: In vivo HS inhibition study, scar elevation index from H&E sections. Details: species or system rabbits (Oryctolagus cuniculus). The conditions noted are these: after the 3rd administration (once a week for 3 weeks), before treatment 3.5 in drug-loaded MNs group, untreated HS group 3.3, 5-Fu injection 120 μg per lesion, mean of n = 3. The method, then: We investigated therapeutic effects of separating MNs on HS model in rabbit ears. Among the 15 rabbits, three rabbits were used as the control group (normal skin, NS), and the other 12 rabbits were used to establish HS model. The rabbit ear HS model was established according to a standard method, i.e., 4 HS lesions on each ear and 96 in total. Briefly, the rabbits were anesthetized with sodium pentobarbital (30 mg/kg) and operated under sterile conditions. Then, 4 round-shaped wounds of 7 mm diameter were created on the ventral surface of each ear, which were kept away from the central auricular artery and the periauricular vein. The epidermis, dermis, and perichondrium in each wound was removed thoroughly. After the procedures, the wounds were washed with 0.1% benzalkonium chloride solution to sterilize. In the following 2 weeks, after the rabbits were anesthetized, the newly formed wound tissues were removed to accelerate the formation of HS. […]
The three rabbits without treatment were taken as the control group (group 1, NS). […] The macroscopic images were recorded on the 21st day (before administration), the 29th day (1 week after the 1st administration), the 36th day (1 week after the 2nd administration), the 43rd day (1 week after the 3rd administration) and the 50th day (1 week follow-up). […]

On the set-up of data set [3]: method as in earlier work. Particulars: in blood circulation; ref Oncol. Lett. 2018, 15, 7175; Cancer Res. 1978, 38, 3479; Cancer Biol. Ther., 2012, 13, 1407; Cancer Chemother. Pharmacol. 2013, 71, 351; Biomater. Sci. 2017, 5, 502; cited from earlier work. The text has this: Response: Thanks for the questions. […] Corticosteroids could reduce inflammation response, promote vasoconstrictive effect, and inhibit fibroblast proliferation to treat HS.

Data set [4] deals with NIH/3T3 fibroblasts. Briefly: In vitro wound scratch (migration) assay. The format is cell-based. Particulars: 80 μM drug with 0.5% FBS, after 48 h of incubation, Image J, n = 3, control almost complete closure within 48 h.
Description: In vitro wound scratch assay. Wound scratch assays were used to evaluate the migration of
NIH/3T3 fibroblasts were seeded into 24-well plates at a density of 2 × 10^4 cells/well for 8 h. Then,
the sterile pipette tips were used to draw the scratch in the center of the wells, and the cells scratched
off were washed away with PBS for 3 times. 500 μL of drug solutions consisting of 80 μM of 5-
Data set [5] concerns human hypertrophic scar fibroblast (HSFb). Briefly: Intracellular ROS scavenging (ROS assay kit, DCFH-DA, CLSM). In kind it is cell-based. Particulars: HSFb stimulated with ROSup, 5-FuA-Pep-MA 50, 100 and 200 μM, 12 h, with increased concentration. On the procedure: The migration of cells was imaged with an inversion microscope at 0, 24 and 48 h. The area of the scratch was analyzed by Image J, and the wound healing rate (WHR) was calculated according to the following equation: WHR (%) = (A0 − At)/A0 × 100%, where A0 and At represented the area of scratch at 0 h and t h, respectively.
Intracellular ROS scavenging. ROS assay kit was used to observe the elimination of intracellular ROS by 5-FuA-Pep-MA. Specifically, HSFbs were seeded in 8-well confocal dishes at a density of 1 × 10^4 cells/well and cultured for 12 h to adhere to the bottom of the dishes. […]
Immunohistochemical, fluorescence and immunofluorescence staining of HS tissues. The ROS levels in HS tissues were measured by the fluorescence and immunofluorescence methods on day
43rd. […] The expression of MMP2 and MMP9 in HS tissues were measured by immunohistochemistry and immunofluorescence methods on day 43rd. […]
RNA sequencing and sample collection. […] RNA integrity was assessed using the RNA Nano 6000 Assay Kit of the Bioanalyzer 2100 system (Agilent Technologies, CA, USA). PCR products were purified (AMPure XP system) and library quality was assessed on the Agilent Bioanalyzer 2100 system. […]
Quality control. Firstly, raw data (raw reads) of fastq format were processed through in-house perl scripts. […]

Data set [6] in a line: ROS-responsive cleavage of prodrug by H2O2 (HPLC). In kind it is physicochemical. The conditions noted are these: PBS with 10, 50, 100 and 300 μM H2O2, 37 °C, 24-120 h, HPLC peak area, n = 3. The text has this: pathological microenvironment of HS tissues determined the drug release rate and […]
Indeed, the size, thickness and duration vary in patients with HS, which could affect the amount of drug needed. […]
fibroblasts/myofibroblasts and the more collagen fibers secreted. Therefore, we could adjust the frequency of treatment for different scar features (size, thickness and […]
3. Figure 3: The ROS response of 5-FuA-Pep-MA prodrug with different concentrations of H2O2 should be shown in both concentration and time.
We have revisited the relevant experiment.
Specifically, 5-FuA-Pep-MA prodrug was incubated with PBS containing different concentrations (10, 50, 100 and 300 μM) of H2O2 at 37 ℃, respectively . 50 μL solutio n was taken out at a pres et time (24, 48, 72, 96 and 120 h), which was analy zed by HPLC. […]
and concentration-dependent (Fig. 3g). […]
For the question3: As described in method:  The peak area obtained from the sample without H2O2 was recorded as A0, while the peak area obtained from the sample with H2O2 was recorded as Ac. The degradation rate was calculated by [(A0-Ac)/A0] À 100% to evaluate the ROS response of peptide prodrug […]
A direct observation of more 5-FU with more H2O2, by HPLC or other methods, either in-vitro or in-vivo, would be more convictive. For example, glucose responsive release of insulin was detected by insulin elisa kit, not the degradation of vesicles […]

`O=c1[nH]cc(F)c(=O)[nH]1` [5-Fu, 5-Fluorouracil]: the cell viability in data set [1] (250 μM, 48 h incubation, CCK-8, absorption at 450 nm, mean of n = 4) was 46.9%. Also, the “scar elevation index (SEI)” value in data set [2] is recorded as 2.2. For the same compound, in data set [3], the half-life is 10 to 20 min.

Turning to `O=C(O)Cn1cc(F)c(=O)[nH]c1=O` [5-FuA, 5-Fuorouracil-1-acetic acid], in data set [1], the “inhibitory effect on fibroblasts compared among 5-FuA, 5-FuA-Pep-MA and 5-FuA-Pro-Pro” value is “no significant difference”. The compound also returned a wound healing rate in data set [4] of 48.3%.

In the case of `C=C(C)C(=O)NCCCC[C@H](NC(=O)[C@@H]1CCCN1C(=O)[C@@H]1CCCN1C(=O)[C@@H]1CCCN1C(=O)Cn1cc(F)c(=O)[nH]c1=O)C(N)=O` [5-FuA-Pep-MA] ({Acetyl(5-fluorouracil-1-yl)}-PPPK(Methacryloyl)-NH2), the “inhibitory effect on fibroblasts compared among 5-FuA, 5-FuA-Pep-MA and 5-FuA-Pro-Pro” value in data set [1] is listed as “no significant difference”. In addition, in data set [4], the wound healing rate was determined as 51.6%. Also, the “intracellular ROS fluorescence intensity” value in data set [5] is “significantly reduced”. Besides, the ROS-responsive cleavage rate entry in data set [6] is “positively correlated with H2O2 concentrations and incubation time”.

Take `O=C(O)[C@@H]1CCCN1C(=O)[C@@H]1CCCN1C(=O)Cn1cc(F)c(=O)[nH]c1=O` [5-FuA-Pro-Pro]: the “inhibitory effect on fibroblasts compared among 5-FuA, 5-FuA-Pep-MA and 5-FuA-Pro-Pro” value in data set [1] is listed as “no significant difference”. In data set [4], this compound showed a wound healing rate of 53.2%.

Source of the values: article PMC10917775, “Endogenous stimuli-responsive separating microneedles to inhibit hypertrophic scar through remodeling the pathological microenvironment” (Nature Communications, 2024).
